Measurements reported in BindingDB's records for doi:10.1021/jm8008647 (Ewha Womans University, 2008).

Target: T1, Adenosine receptor A3 (Rattus norvegicus, UniProt P28647)
T1 sequence (P28647 whole entry): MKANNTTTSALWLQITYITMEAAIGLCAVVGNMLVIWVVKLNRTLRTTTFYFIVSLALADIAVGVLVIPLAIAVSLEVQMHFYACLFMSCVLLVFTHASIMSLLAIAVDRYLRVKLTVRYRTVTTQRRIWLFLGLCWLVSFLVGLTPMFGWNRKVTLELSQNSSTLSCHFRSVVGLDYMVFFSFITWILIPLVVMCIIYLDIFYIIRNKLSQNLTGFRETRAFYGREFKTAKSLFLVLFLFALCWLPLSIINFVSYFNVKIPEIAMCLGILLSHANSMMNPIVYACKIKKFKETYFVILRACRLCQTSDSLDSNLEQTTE
Experiment: Displacement of [125I]I-AB-MECA from rat adenosine A3 receptor expressed in CHO cells

Ki: 48 nM
SMILES: O[C@@H]1[C@H](O)CS[C@H]1n1cnc2c(NCc3cccc(I)c3)ncnc21 [(2R,3R,4S)-2-(6-(3-Iodobenzylamino)-9H-purin-9-yl)-tetrahydrothiophene-3,4-diol]
